Experimental data reported in patent US20060100269A1, “Use of 10-aminoaliphatyl-dibenz[b,f]oxepines for the treatment of degenerative ocular disorders” (priority 2003, published 2006).

How the values were obtained:
[1] = test system: retinal ganglion cells (RGCs); test: transient retinal ischemia by selective ligature of ophthalmic vessels, RGC rescue; format: in vivo; conditions: adult Sprague-Dawley rats; 60 minutes ischemia causing 30% RGC death seven days after ischemia; intraperitoneal injection, 0.005 mg/kg
Experimental: In particular, in adult Sprague-Dawley rats, transient retinal ischemia induced by selective ligature of ophthalmic vessels for 60 minutes, causes a 30% RGC death seven days after ischemia.

[2] = test system: retinal ganglion cells (RGCs); test: crush of the rat optic nerve, RGC loss and apoptotic nuclei; format: in vivo; conditions: 0.1 mg/kg subcutaneously, assessed 18 days after optic nerve crush

With C#CCN(C)CC1=Cc2ccccc2Oc2ccccc21.O=C(O)/C=C\C(=O)O [N-(dibenz[b,f]oxepin-10-ylmethyl)-N-methyl-N-prop-2-ynylamine hydrogen maleate] the RGC rescue rate [1] was 45%, the “increase in apoptotic nuclei” value [2] was “significantly reduces” and the “loss of RGCs” value [2] was “significantly reduces”.
